Assay results taken from PubChem BioAssay (NCI).
Where “and” joins values, the source holds several entries; their conditions need not be identical. Equal values may be shown once.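 Growth conditions: 96-well plates. Treatment: test compound, 48 hours, 5 concentrations. Analysis: linear interpolation between bracketing concentrations; unreached endpoints set to highest concentration. The concentration for 50% growth inhibition is given as GI50. The concentration for full growth arrest is given as TGI.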

How the values were obtained:
Assay in all cases: inhibition of tumour cell growth, NCI panel, 48 h
BT-549 breast = system: BT-549 breast
HOP-92 NSCLC = system: HOP-92 NSCLC
MCF7 breast = system: MCF7 breast
MDA-MB-435 = system: MDA-MB-435
NCI/ADR-RES ovarian = system: NCI/ADR-RES ovarian
PC-3 prostate = system: PC-3 prostate
T-47D breast = system: T-47D breast

| Structure (SMILES) | GI50 (BT-549 breast) | TGI (BT-549 breast) | GI50 (HOP-92 NSCLC) | TGI (HOP-92 NSCLC) | GI50 (MCF7 breast) | TGI (MCF7 breast) | GI50 (MDA-MB-435) | TGI (MDA-MB-435) | GI50 (NCI/ADR-RES ovarian) | TGI (NCI/ADR-RES ovarian) | GI50 (PC-3 prostate) | TGI (PC-3 prostate) | GI50 (T-47D breast) | TGI (T-47D breast) |
| --- | --- | --- | --- | --- | --- | --- | --- | --- | --- | --- | --- | --- | --- | --- |
| CCN(CC)CCC(=O)Nc1ccc(Cn2nnc3c2C(=O)c2nnn(Cc4ccc(NC(=O)CCN(CC)CC)cc4)c2C3=O)cc1 | 1640 nM | 3.06 µM | 325 nM | 0.913 µM | 154 nM | 0.373 µM | 173 nM | 0.324 µM | > 100000 nM | > 100 µM | 1980 nM | 6.87 µM | – | – |
| CC(C)(C)n1cc(-c2ccnc(NCCNS(=O)(=O)c3ccc(Br)cc3)c2)c(-c2cccc(O)c2)n1 | 1640 nM | 3.2 µM | 1510 nM | 3.86 µM | 1480 nM | 3.7 µM | 1780 nM | 3.35 µM | 2130 nM | 4.99 µM | 1460 nM | 4.38 µM | 1650 nM | 5.44 µM |
| Cn1c(=O)n(-c2ccc(C(C)(C)C#N)cc2)c2c3cc(-c4cnc5ccccc5c4)ccc3ncc21 | 4.93 nM and < 10 nM | – | < 10 nM and 4.31 nM | 0.0622 µM and 0.122 µM and 0.0651 µM | < 10 nM and 5.62 nM | 12.2 µM and > 5.84 µM and > 100 µM | < 10 nM and 5.72 nM | 0.0687 µM | 21.2 nM and 8.49 nM and 19.7 nM | > 100 µM | < 10 nM and 6.3 nM | > 100 µM | < 10 nM and 14.1 nM | 0.0488 µM and 0.0817 µM |
| CN1C(=O)c2cc(Cl)nc3c(NC(=O)c4cccc(Cl)c4)c(Cl)c(NC(=O)c4cccc(Cl)c4)c1c23 | 1640 nM | 3.19 µM | 1710 nM | 3.41 µM | 1940 nM | 6.26 µM | 1700 nM | 3.2 µM | 3380 nM | 17.3 µM | 1930 nM | 3.99 µM | 1770 nM | 4.32 µM |
| O=C(OCc1ccccc1CN1CCOCC1)c1ccc(Br)cc1 | – | > 100 µM | – | > 100 µM | – | > 100 µM | – | 95.2 µM | – | > 100 µM | – | > 100 µM | – | > 100 µM |
| O=C(Oc1c(I)ccccc1=O)c1ccc([N+](=O)[O-])cc1 | – | 41.8 µM | – | – | – | 35.5 µM | – | 42.4 µM | – | > 100 µM | – | 75.1 µM | – | 1.33 µM |
| CN1CCCC1c1cccnc1.O=C(O)c1ccccc1O.O=C([O-])c1ccccc1[OH2+].O=C([O-])c1ccccc1[OH2+].O=C([O-])c1ccccc1[OH2+].[Mn+2] (stereo not given) | 39700 nM | > 100 µM | > 100000 nM | > 100 µM | 50000 nM | > 100 µM | > 100000 nM | > 100 µM | > 100000 nM | > 100 µM | 95500 nM | > 100 µM | > 100000 nM | > 100 µM |
| CC(CC(=O)O)(CC(=O)O)C(=O)O | – | > 100 µM | – | > 100 µM | – | > 100 µM | – | > 100 µM | – | > 100 µM | – | > 100 µM | – | > 100 µM |
| CC1(CC(=O)O)OC2CCCCCC2O1 (stereo not given) (tested in a mixture with another compound) | – | > 100 µM | – | > 100 µM | – | > 100 µM | – | > 100 µM | – | > 100 µM | – | > 100 µM | – | > 100 µM |
| COc1c(O)c(OC)c(C(=O)/C=C/c2ccccc2)c(O)c1OC | – | – | – | 81 µM | – | > 100 µM | – | 66.2 µM | – | 42.6 µM | – | > 100 µM | – | 79.7 µM |
| Cc1ccc(NCSc2ccc(Cl)cc2)cc1 | 6430 nM | > 100 µM | – | – | > 100000 nM | > 100 µM | 9990 nM | > 100 µM | > 100000 nM | > 100 µM | 10200 nM | > 100 µM | 9550 nM | > 100 µM |
| O=c1oc(-c2ccc(O)c(O)c2)cc2cc(O)cc(O)c12 | 26200 nM | 84.8 µM | 25500 nM | > 100 µM | 42700 nM | > 100 µM | 33000 nM | > 100 µM | 33500 nM | > 100 µM | 31600 nM | > 100 µM | 54500 nM | > 100 µM |
| COc1ccccc1Cn1cc2c(c1)-c1oncc1CC2 | 7500 nM | > 100 µM | 2750 nM | 57.7 µM | 381 nM | > 66.5 µM | 208 nM | 0.545 µM | 529 nM | 3.7 µM | 2010 nM | > 100 µM | 2150 nM | > 100 µM |
| COc1cc[nH]c1/C=C1\C(=O)Nc2ccc(F)c(C#CC3(O)CCOCC3)c21 | 556 nM | 1.37 µM | 678 nM | 2.02 µM | 758 nM | 4.68 µM | 570 nM | 4.05 µM | 885 nM | 8.42 µM | 669 nM | 6.52 µM | 1100 nM | 16 µM |
| CC[C@]12C=CCN3CC[C@]4(C(=C(C(=O)OC)C1)Nc1cc(O)ccc14)[C@@H]32 | 20600 nM | 41.9 µM | 11600 nM | 26.1 µM | 19100 nM | 45.5 µM | 3630 nM | 16.8 µM | 14400 nM | 33.6 µM | 21200 nM | 50.5 µM | 22400 nM | 87.7 µM |
| O=C1OC(c2ccc(O)cc2)(c2ccc(O)cc2)c2cccc3cccc1c23 | 1260 nM | 4.01 µM | 12200 nM | 26.8 µM | 1980 nM | 25.9 µM | 9040 nM | 22.4 µM | 21900 nM | 68.7 µM | 11500 nM | 29 µM | 118 nM | 12 µM |
| CCOC(=O)c1[nH]c2c(c1C)-c1[nH]c(=O)c(S(=O)(=O)c3ccccc3)cc1SC2 | 36500 nM | > 100 µM | 504 nM | 61.1 µM | 40400 nM | > 100 µM | 42800 nM | > 100 µM | 52900 nM | > 100 µM | 17700 nM | > 100 µM | 15400 nM | 58.9 µM |
| COc1cc(C2C3=C(COC3=O)N(CCO)c3cc4c(cc32)CCC4)cc(OC)c1O (stereo not given) | 680 nM | > 9.16 µM | > 32500 nM | > 32.5 µM | 107 nM | > 21.4 µM | 64.6 nM | 0.191 µM | 2450 nM | > 21 µM | 203 nM | > 32.5 µM | 141 nM | > 32.5 µM |
